Measurements reported in patent publication US20210330756A1, “Acetylation of Miro1” (University of South Carolina, priority 2020, published 2021).

Experiments:
[1] = test system: rat embryonic cortical neurons; conditions: 10 μM; cited from earlier work
adult DRG neurons = assay: Axon growth of DRG neurons on laminin or substrate-bound aggrecan (CSPG); format: cell-based, rat; conditions: 10 μM TubA, 24 h
Text: MAG and CSPGs are more often tested as surface-bound substrates than with the bath applications used here. Thus, we tested whether bath application of growth inhibitors would cause growth cone retraction in a manner similar to surface-bound inhibitors. […] RhoA activation is a well-known downstream mediator for the growth-inhibitory effects of both MAG and CSPGs (Fujita and Yamashita, 2014), so we tested whether the RhoA/ROCK pathway contributes to the impact of aggregan on mitochondria distribution in growth cones.
MAG or Aggrecan exposures were performed as bath application or on coated substrates. For bath application, dissociated DRGs were cultured for 48 h and treated with 25 μg/ml of MAG-Fc (R&D Systems; 538-MG), 25 μg/ml Fc control (R&D Systems; 110-HG), or 10 μg/ml of Aggrecan (Sigma-Aldrich; A1960) for 4 h. Cultures were pretreated with either Ca^2+ chelator BAPTA-AM (3 μM; Sigma-Aldrich; A1076), ROCK inhibitor Y27632 (10 μM; Sigma-Aldrich; SCM075), HDAC6 inhibitor TubA (10 μM; R&D Systems; 6270), Thapsigargin (1 μM; Sigma-Aldrich; T9033), Rho Activator II (1 μg/ml; Cytoskeleton; CNO3), or equivalent volume DMSO 30 min before MAG-Fc, Aggrecan, or controls. […]
NF-stained cultures were used for neurite growth analyses. […] The growth cone area was measured using ImageJ software from these annotated DIC images. […]

[2] = test system: axons of adult mouse DRG neurons; assay: Microfluidic devices: exposure limited to axons of DRG neurons; format: cell-based
Text: To determine if the effect of growth inhibitors on mitochondrial recovery was limited to distal axons, we performed FRAP on more proximal segments of the axon shaft in DRG neurons expressing Mito-GFP. For analyses of recovery, the bleached ROIs were divided into four subregions along the axon length so that we could distinguish anterograde from retrograde transport-driven Mito-GFP recovery. […] Since this effect of MAG-Fc on recovery could derive from either axons or cell body, we cultured dissociated DRGs in microfluiclic devices where we could limit exposure to MAG-Fc and TubA to the axons.
For primary culture of rat DRG neurons, L4-5 DRG were harvested in Hibernate-A medium (BrainBits) and then dissociated using type I collagenase (50 U/ml; Gibco) for 20 min at 37° C. and 5% CO2(Twiss et al., 2000). Dissociated ganglia were cultured in complete medium containing 10% FetalPlex animal serum complex (Gemini), 1% N1 Supplement (Sigma-Aldrich), and 10 μM cytosine-arabinoside (Sigma-Aldrich) on laminin/poly-L-lysine-coated substrates. Mouse neurons were used for cultures in microfluidic devices. For these, all cervical, thoracic, and lumbar DRGs were collected and digested with collagenase (4 mg/ml, Worthington) and dispase (1 mg/ml; Sigma-Aldrich) for 45 min at 37° C. and 5% CO2; these cells were plated in DMEM/F12 and 10% FBS at 37° C. and 5% CO2. […]

CN1CCc2c(c3ccccc3n2Cc2ccc(C(=O)NO)cc2)C1 [TubA, tubastatin]
histone acetylation [1]: no effect on histone acetylation
levels of acetyl (Ac) α-tubulin [1]: increases levels of acetyl (Ac) α-tubulin
effect on attenuation of axon growth by substrate-bound aggrecan (adult DRG neurons): prevented by TubA exposure
effect on MAG-Fc-dependent decrease in distal axon mitochondria ([2]; TubA in axonal compartment): prevented by TubA treatment
axon retraction and end bulb formation in distal axons after MAG-Fc ([2]; TubA treatment): prevented the axon retraction and end bulb formation
